The source of these data is patent US11078191B2, “1-(4-amino-5-bromo-6-(1H-pyrazol-1-yl)pyrimidin-2-yl)-1H-pyrazol-4-ol and use thereof in the treatment of cancer” (Novartis AG, priority 2017, dated 2021).

Each structure is given as a SMILES string. Where two headings read alike, the source gives them in different places. Marks after values point to notes of the source that are not given here.

For series [1] the following is noted: male, Sprague Dawley, rat, microsomes. As to the method: (§1) The final organic content in liver microsomal incubations was 0.5%.
Liver microsomal protein (25 uL for 0.5 mg/mL; 15 uL for 0.3 mg/mL), NADPH (100 uL, 2 mM final concentration) and phosphate buffer (870 uL for 0.5 mg/mL; 880 uL for 0.3 mg/mL) were incubated in a microfuge tube in an orbital shaker incubator for 10 min maintained at 37° C. Reactions were initiated by spiking 5 uL of 2 mM and 0.2 mM 5-bromo-2,6-di(1H-pyrazol-1-yl)pyrimindin-4-amine([…]; […]; 0.5% final DMSO concentration) and samples incubated at 37° C. Aliquots (200 uL) were withdrawn from the reaction tube at 0, 60 and 120 minutes and the reaction was quenched by addition of 100 uL acetonitrile. Reactions were performed in duplicates. The quenched samples were centrifuged at 14000 rpm (approximately 21000 g) for 10 minutes(Eppendorf Centrifuge 5810 R) and supernatant was analyzed by LCMS/MS.
(§2) Control incubations (no NADPH added) and blank incubations (no test item added) were performed in singlet for each species. These samples were withdrawn at 0 and 120 min and quenched using acetonitrile. The supernatant was analyzed for any non microsomal degradation and matrix interference. […] Reaction and control experiments were performed in singlet.

How the values of series [2] were obtained: as §1
Liver microsomal protein (25 uL for 0.5 mg/mL; 15 uL for 0.3 mg/mL), NADPH (100 uL, 2 mM final concentration) and phosphate buffer (870 uL for 0.5 mg/mL; 880 uL for 0.3 mg/mL) were incubated in a microfuge tube in an orbital shaker incubator for 10 min maintained at 37° C. Reactions were initiated by spiking 5 uL of 2 mM and 0.2 mM 5-bromo-2,6-di(1H-pyrazol-1-yl)pyrimindin-4-amine(10 uM final concentrations for 0.5 mg/mL protein; 1 uM final concentration for 0.3 mg/mL protein; 0.5% final DMSO concentration) and samples incubated at 37° C. Aliquots (200 uL) were withdrawn from the reaction tube at 0, 60 and 120 minutes and the reaction was quenched by addition of 100 uL acetonitrile. Reactions were performed in duplicates. The quenched samples were centrifuged at 14000 rpm (approximately 21000 g) for 10 minutes(Eppendorf Centrifuge 5810 R) and supernatant was analyzed by LCMS/MS.
as §2

Series [3] in a line: Liver microsomal incubations compared across tested species. Format: in vitro ADME, rat, dog, human. On the procedure: (§3) Reactions were performed in duplicates.
(§4) Reaction and control experiments were performed in singlet.

The target in series [4] is T1, human adenosine A2A receptor (Homo sapiens, UniProt P29274).
T1 construct: purchased Perkin Elmer RBHA2AM400UA; host or cells: HEK-293 cells stably expressing the receptor (membrane preparation)
T1 sequence (P29274 whole entry): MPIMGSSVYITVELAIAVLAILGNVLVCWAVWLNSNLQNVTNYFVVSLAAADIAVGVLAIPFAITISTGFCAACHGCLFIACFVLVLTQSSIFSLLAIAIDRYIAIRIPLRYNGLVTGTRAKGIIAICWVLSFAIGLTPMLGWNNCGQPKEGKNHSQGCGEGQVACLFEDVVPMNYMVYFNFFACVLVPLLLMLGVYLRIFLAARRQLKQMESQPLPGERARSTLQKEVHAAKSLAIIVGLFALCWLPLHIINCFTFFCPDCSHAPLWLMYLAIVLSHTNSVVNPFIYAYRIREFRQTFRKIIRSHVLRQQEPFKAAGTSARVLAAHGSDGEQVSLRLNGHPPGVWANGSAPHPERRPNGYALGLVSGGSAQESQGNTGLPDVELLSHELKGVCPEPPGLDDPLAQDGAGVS
As to the kind of experiment: In vitro hA2A radioligand binding assay. The settings on record: [3H]-ZM241385 competition, HEK-293 membranes; Ki from IC50 by Cheng-Prusoff.

Series [5] is classed as in vitro ADME. To be noted: for Percentage area ratio with respect to parent (10 uM): 0 min. As to the method: • ACN: acetonitrile • CC: calibration curve • IS: internal standard • DMSO: dimethylsulfoxide • MRM: multiple reaction monitoring • […]: nicotinamide adenine dinucleotide phosphate (reduced) • Rpm: revolution per minute Liver Microsomes • Rat liver microsomes (male, pooled, Sprague Dawley) • Source: XenoTech, LLC (Kansas, USA) • Protein content: 20 mg/mL • Catalogue number: R I 000, Lot number: 0710623 • Dog liver microsomes (male, pooled, Beagle) • Source: XenoTech, LLC (Kansas, USA) • Protein content: 20 mg|mL • Catalogue number: D I 000, Lot number: 0810143 • Human liver microsomes (mixed gender, pooled) • Source: XenoTech, LLC (Kansas, USA) • Protein content: 20 mg|mL • Catalogue number: H061 0, Lot number: 101042 Stock Solutions and Reagents Test Item
as §3, §4
Samples were processed using protein precipitation method and then analyzed by employing linear gradient with a run time of 28 min in HPLC coupled with tandem mass spectrometry (API 4000 mass spectrometer). Each sample was injected and scanned separately for Q1 (MH+/MH−) and MS/MS.
The different possible metabolite peaks were identified in Q1 scan after assessing for matrix interference using test item free blank samples, and were confirmed from the fragmentation pattern (MSIMS scan).
An alternate analytical method was also developed to increase the retention times and to assess other metabolites apart from the identified M-1 metabolite. Aqueous solutions of 1-(6-amino-5-bromo-2-(1H-pyrazol-1-yl)pyrimidin-4-yl)-1H-pyrazol-4-ol and 1-(4-amino-5-bromo-6-(1H-pyrazol-1-yl)pyrimidin-2-yl)-1H-pyrazol-4-ol (1 uM) were co-chromatographed with the in vitro incubated samples employing modified analytical method to confirm the identity.

The nature of series [6]: Mass balance determination in human liver microsomes (MRM analysis). Format: in vitro ADME. On the procedure: as §3
An aliquot (25 uL) of these samples were further diluted with 100 uL of internal standard (Haloperidol, 1 ug|mL in acetonitrile).
The incubation samples were also prepared similar to that of the calibration standards by adding 25 uL of the quenched sample with 100 uL of internal standard.
In general terms: Liver microsomes are vesicles of endoplasmic reticulum, rich in cytochrome P450 enzymes.

[7] abbreviates: human liver microsomes, parent 10 uM, 0 min, Set-1.
The mark [8] stands for this setting: human liver microsomes, parent 10 uM, 0 min, Set-2.
The mark [9] stands for this setting: human liver microsomes, parent 10 uM, 30 min, Set-1.
[10] abbreviates: human liver microsomes, parent 10 uM, 30 min, Set-2.
Setting [11] is: human liver microsomes, parent 10 uM, 60 min, Set-1.
Where [12] appears, read: human liver microsomes, parent 10 uM, 60 min, Set-2.

Turning to `O=C(O)Cc1ccccc1Nc1c(Cl)cccc1Cl` [Diclofenac], the “% remaining” value is listed as 100% in series [1] (0 h, 0.5 uM); 12% in series [1] (1 h, 0.5 uM); 100% in series [2] (both, human, microsomes, 0 h, 0.5 uM); 100% in series [2] (both, human, microsomes, 1 h, 0.5 uM).
Consider `Nc1nc(-n2cc(O)cn2)nc(-n2cccn2)c1Br` [Example 1, 1-(4-amino-5-bromo-6-(1H-pyrazol-1-yl)pyrimidin-2-yl)-1H-pyrazol-4-ol], for which, in series [3] (rat, dog and human liver microsomes, assumes equal ionization efficiency), the “percentage of metabolite with respect to parent” value was “uniformly low”. For the same compound, in series [4], the Ki stood at 50 nM. In addition, the “Percentage area ratio with respect to parent (10 uM)” value in series [5] (male, Beagle, dog) was 0.01%. The “percentage of M-I metabolite in human liver microsomes” value in series [6] (after 60 minutes of incubation with parent, % of the parent) is on record as 15-20%. The “% M-I detected” value turned out to be 0% in series [6] (setting [7]); 0% in series [6] (setting [8]); 10.95% in series [6] (setting [9]); 7.97% in series [6] (setting [10]); 18.93% in series [6] (setting [11]); 15.08% in series [6] (setting [12]). Moreover, the “M-I Concentration” value in series [6] (setting [7]) came out at 0 µM; in series [6] (setting [8]), 0 µM; in series [6] (setting [9]) it was 1.29 µM; in series [6] (setting [10]), 0.92 µM; in series [6] (setting [11]) it was 2.23 µM; in series [6] (setting [12]) it was 1.74 µM.
As to `Nc1nc(-n2cccn2)nc(-n2cccn2)c1Br` [Parent, 5-bromo-2,6-di(1H-pyrazol-1-yl)pyrimindin-4-amine], the “relative metabolism across tested species” value in series [3] (1 uM, 0.3 mg/mL microsomal protein, DLM, HLM, RLM = dog, human, rat liver microsomes) is reported as “DLM>HLM>RLM”. Moreover, the “stability in control incubations (no NADPH added)” value in series [3] (liver microsomes, indicating no non-CYP mediated metabolism) is “stable up to 120 min”. Besides, the “% remaining” value came out at 100% in series [1] (0 h, 1 uM); 100% in series [2] (both, human, microsomes, 0 h, 1 uM); 100% in series [2] (male, Beagle, dog, microsomes, 0 h, 1 uM). Further, the “Percentage area ratio with respect to parent (10 uM)” value in series [5] (both, human) worked out at 100%; in series [5] (male, Beagle, dog), 100%; in series [5] (male, Sprague Dawley, rat), 100%. The “% metabolism of parent at 120 min” value in series [5] (male, Sprague Dawley, rat, 120 min, 10 uM) amounted to 0%; in series [2] (both, human, 1 uM), 76%; in series [2] (human, 1 uM) it was 78%; in series [2] (male, Beagle, dog, 1 uM) it was 83%. For the same compound, the “Concentration of Analyte metabolized” value is 0 nM in series [5] (male, Sprague Dawley, rat, microsomes, 2 h, 10 uM) and 830 nM in series [2] (male, Beagle, dog, microsomes, 2 h, 1 uM). The “% parent Remaining” value in series [6] (setting [7]) was found to be 100%; in series [6] (setting [9]), 96.26%; in series [6] (setting [11]) it was 88%; in series [6] (human, microsomes, 0 h, 10 uM) it was 100%; in series [6] (human, microsomes, 0.5 h, 10 uM), 87.44%; in series [6] (human, microsomes, 1 h, 10 uM), 79.55%. In addition, the “Parent Concentration” value is 11.78^a uM in series [6] (setting [7]); 11.34^a uM in series [6] (setting [9]); 10.47^a uM in series [6] (setting [11]); 11.54^a uM in series [6] (human, 0 min, 10 uM); 10.09^a uM in series [6] (human, 30 min, 10 uM); 9.18 µM in series [6] (human, 60 min, 10 uM). The Mass balance in series [6] (setting [9]) is given as 107.22%; in series [6] (setting [11]) it was 107.81%; in series [6] (human, 30 min, 10 uM), 95.41%; in series [6] (human, 60 min, 10 uM) it was 94.63%. The “mass balance for the metabolism in human liver microsomes” value in series [6] (text summary of Table 7) lay in the range of 95 to 107%.

One may read the Ki as a dissociation constant, usually derived from enzyme kinetics or from competition with a known ligand. Read a high Ki as weaker binding.
